According to ChEMBL document CHEMBL1201862, “PubChem BioAssay data set” (2004):
Activity calls are given as the source filed them.

What was measured:
[1] = molecular target: Photoreceptor-specific nuclear receptor (Homo sapiens, UniProt Q9Y5X4); assay type: functional, cell-based;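 further: CHO-S cells with Gal4-NCOR and VP16-NR2E3 two-hybrid luciferase reporter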
[2] = viability loss of HMLE_sh_eGFP cells – cell-based, luminescence, counter-screen for HMLE_sh_ECad selective toxicity project, dose response (AID 463074); assay type: functional, Homo sapiens;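 further: HMLE human mammary epithelial cells expressing control shRNA against eGFP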
Fatty acid synthase [3] = molecular target: T1, Fatty acid synthase (Homo sapiens, UniProt P49327); assay: inhibition of human FAS-TE enzyme activity – biochemical, endpoint fluorescence intensity, uHTS hits, dose response (AID 624327); assay type: functional;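 further: fluorescence from hydrolysis of an O-methyl fluorescein acyl ester substrate by the enzyme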
T1 sequence (P49327 whole entry): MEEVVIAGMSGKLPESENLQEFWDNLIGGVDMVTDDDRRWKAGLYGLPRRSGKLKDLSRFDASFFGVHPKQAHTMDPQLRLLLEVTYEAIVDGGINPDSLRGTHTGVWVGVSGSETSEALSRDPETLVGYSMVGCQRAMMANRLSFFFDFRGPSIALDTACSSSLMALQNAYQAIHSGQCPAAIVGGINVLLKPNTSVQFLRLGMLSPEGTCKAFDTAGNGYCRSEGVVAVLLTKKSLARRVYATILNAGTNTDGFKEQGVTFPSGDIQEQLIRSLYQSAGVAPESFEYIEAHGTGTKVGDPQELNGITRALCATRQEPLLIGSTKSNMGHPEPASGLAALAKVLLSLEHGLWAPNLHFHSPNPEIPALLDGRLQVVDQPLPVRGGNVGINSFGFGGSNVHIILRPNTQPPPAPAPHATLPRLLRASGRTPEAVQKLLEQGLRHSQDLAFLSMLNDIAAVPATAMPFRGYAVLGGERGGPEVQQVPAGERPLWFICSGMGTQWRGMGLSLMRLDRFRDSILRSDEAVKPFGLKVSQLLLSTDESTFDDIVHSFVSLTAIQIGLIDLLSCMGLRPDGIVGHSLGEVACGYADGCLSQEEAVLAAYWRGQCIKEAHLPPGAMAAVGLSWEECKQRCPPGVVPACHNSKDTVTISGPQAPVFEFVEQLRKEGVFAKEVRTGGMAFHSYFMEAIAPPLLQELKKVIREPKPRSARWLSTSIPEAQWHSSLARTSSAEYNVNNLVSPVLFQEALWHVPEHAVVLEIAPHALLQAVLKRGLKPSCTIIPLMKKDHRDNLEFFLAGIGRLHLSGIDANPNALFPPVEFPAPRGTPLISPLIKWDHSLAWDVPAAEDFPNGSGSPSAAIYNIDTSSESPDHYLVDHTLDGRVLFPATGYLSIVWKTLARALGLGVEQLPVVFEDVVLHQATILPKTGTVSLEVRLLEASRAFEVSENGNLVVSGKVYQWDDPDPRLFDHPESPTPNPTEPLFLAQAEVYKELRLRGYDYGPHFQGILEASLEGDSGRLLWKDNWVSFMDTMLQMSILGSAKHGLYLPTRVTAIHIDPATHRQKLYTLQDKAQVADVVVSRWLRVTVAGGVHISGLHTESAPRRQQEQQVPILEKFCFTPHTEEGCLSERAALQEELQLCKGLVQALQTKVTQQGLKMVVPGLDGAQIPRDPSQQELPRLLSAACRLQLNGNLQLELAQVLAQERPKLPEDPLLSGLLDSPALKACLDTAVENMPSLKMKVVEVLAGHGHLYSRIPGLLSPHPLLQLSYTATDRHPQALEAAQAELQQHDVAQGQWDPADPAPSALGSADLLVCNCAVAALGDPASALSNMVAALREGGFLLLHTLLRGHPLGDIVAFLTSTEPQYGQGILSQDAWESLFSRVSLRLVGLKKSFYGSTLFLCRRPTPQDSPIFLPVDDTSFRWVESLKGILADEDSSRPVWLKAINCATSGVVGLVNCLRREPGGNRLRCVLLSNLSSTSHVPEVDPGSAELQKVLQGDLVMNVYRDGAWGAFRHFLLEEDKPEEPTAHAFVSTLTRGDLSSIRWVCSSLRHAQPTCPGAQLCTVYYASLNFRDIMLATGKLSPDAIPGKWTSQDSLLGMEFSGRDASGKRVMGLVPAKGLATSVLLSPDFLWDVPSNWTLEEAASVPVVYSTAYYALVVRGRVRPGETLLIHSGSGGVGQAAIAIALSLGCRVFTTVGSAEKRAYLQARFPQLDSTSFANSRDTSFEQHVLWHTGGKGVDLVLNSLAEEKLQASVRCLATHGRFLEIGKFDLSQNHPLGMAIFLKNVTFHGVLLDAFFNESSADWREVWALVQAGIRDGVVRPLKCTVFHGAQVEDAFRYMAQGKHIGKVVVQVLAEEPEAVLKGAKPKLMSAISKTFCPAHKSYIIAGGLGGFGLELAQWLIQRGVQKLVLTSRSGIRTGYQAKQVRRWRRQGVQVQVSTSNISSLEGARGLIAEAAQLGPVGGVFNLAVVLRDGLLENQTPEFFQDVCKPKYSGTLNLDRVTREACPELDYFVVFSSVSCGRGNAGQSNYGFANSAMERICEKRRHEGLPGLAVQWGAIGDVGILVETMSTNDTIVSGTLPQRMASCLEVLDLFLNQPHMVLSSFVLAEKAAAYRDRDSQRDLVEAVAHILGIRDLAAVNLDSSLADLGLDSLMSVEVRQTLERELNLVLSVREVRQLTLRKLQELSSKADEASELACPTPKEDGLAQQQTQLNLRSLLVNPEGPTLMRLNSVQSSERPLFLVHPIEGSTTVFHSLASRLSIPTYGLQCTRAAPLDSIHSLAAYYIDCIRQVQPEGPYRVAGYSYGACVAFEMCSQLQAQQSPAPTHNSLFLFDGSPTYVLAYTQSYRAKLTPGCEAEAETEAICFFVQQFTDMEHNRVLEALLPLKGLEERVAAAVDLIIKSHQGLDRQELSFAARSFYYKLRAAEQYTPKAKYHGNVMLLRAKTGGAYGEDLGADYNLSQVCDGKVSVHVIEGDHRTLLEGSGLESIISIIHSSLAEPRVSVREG

Fatty acid synthase [4] = molecular target: T1, Fatty acid synthase; assay: inhibition of human FAS-TE enzyme activity – biochemical, kinetic fluorescence intensity, dose response (AID 624326); assay type: functional;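 further: rate of fluorescence rise from hydrolysis of a fluorogenic O-methyl fluorescein ester substrate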
[5] = Luminescence Cell-Based Dose Retest to Confirm Inhibitors of Cancer Stem Cells. [Related pubchem assays (depositor defined):AID2717, AID2721]; assay type: functional; settings: Homo sapiens
[6] = blockers of CRF-binding protein–CRF-R2 complex – cell-based, uHTS hits, 384-well, dose response (AID 651639); assay type: functional, Homo sapiens; settings: read-out: IC50_Mean
[7] = molecular target: T2, Corticotropin-releasing factor receptor 2/Corticotropin-releasing factor-binding protein (Homo sapiens, UniProt P24387+Q13324); assay: activators of CRF receptor 2 with binding protein – uHTS hits, confirmation (AID 602473); assay type: functional; settings: read-out: EC50_Mean
T2 sequence (Q13324 whole entry): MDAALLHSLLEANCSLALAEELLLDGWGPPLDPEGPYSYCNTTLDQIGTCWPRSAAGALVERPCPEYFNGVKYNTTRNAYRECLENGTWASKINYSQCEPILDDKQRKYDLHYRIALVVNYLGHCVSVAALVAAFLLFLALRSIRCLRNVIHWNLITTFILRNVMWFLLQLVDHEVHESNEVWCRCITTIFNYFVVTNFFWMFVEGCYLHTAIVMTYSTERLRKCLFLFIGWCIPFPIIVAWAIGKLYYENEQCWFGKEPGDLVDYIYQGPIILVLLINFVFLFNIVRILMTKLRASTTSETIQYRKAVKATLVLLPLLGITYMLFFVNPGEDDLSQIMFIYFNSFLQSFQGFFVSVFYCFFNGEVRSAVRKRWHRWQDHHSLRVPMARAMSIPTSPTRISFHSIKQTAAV
T2 sequence (P24387 whole entry): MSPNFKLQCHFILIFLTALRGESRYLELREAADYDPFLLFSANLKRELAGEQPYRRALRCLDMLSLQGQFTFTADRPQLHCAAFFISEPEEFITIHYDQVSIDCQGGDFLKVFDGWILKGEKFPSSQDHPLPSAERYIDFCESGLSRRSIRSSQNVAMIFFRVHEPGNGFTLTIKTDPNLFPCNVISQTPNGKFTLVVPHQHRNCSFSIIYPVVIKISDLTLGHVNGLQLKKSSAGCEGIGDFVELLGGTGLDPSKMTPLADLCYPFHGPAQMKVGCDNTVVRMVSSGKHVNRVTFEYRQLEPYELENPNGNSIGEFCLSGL

[8] = molecular target: T2, Corticotropin-releasing factor receptor 2/Corticotropin-releasing factor-binding protein; assay: Dose Response confirmation of uHTS hits for small molecule antagonists of the CRF-binding protein and CRF-R2 receptor complex.; assay type: functional; settings: read-out: IC50_Mean
[9] = molecular target: T3, DNA repair and recombination protein RAD54-like (Homo sapiens, UniProt Q92698); assay: RAD54 Holliday junction migration blockers – biochemical, fluorescence, cherry-picked samples, dose series, confirmation (AID 651657); assay type: functional
T3 sequence (Q92698 whole entry): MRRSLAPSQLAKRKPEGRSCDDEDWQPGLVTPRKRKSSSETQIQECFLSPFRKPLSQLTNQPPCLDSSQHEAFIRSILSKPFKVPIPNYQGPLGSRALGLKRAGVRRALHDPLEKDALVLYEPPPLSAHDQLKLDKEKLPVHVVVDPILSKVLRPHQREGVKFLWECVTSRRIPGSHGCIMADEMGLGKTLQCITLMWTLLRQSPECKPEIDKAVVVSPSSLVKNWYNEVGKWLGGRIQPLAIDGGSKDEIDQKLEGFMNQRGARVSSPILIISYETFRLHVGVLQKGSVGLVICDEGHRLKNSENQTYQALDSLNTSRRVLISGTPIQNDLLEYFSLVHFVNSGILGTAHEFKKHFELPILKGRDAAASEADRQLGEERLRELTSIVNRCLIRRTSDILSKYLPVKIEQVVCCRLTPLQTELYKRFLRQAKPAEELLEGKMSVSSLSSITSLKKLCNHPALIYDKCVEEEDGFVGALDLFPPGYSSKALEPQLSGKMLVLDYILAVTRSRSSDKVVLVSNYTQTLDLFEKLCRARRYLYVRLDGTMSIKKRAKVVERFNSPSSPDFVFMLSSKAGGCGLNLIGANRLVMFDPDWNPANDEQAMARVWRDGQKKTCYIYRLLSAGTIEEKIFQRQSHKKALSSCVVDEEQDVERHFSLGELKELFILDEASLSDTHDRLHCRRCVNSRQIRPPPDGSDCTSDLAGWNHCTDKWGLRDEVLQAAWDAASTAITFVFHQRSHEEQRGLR

[10] = molecular target: T4, Tyrosine-protein phosphatase non-receptor type 11 (Homo sapiens, UniProt Q06124); assay: PTPN11 enzyme inhibitors – biochemical, selectivity assay for STEP inhibitor project, dose response (AID 602367); assay type: functional; settings: read-out: IC50_Mean
T4 sequence (Q06124 whole entry): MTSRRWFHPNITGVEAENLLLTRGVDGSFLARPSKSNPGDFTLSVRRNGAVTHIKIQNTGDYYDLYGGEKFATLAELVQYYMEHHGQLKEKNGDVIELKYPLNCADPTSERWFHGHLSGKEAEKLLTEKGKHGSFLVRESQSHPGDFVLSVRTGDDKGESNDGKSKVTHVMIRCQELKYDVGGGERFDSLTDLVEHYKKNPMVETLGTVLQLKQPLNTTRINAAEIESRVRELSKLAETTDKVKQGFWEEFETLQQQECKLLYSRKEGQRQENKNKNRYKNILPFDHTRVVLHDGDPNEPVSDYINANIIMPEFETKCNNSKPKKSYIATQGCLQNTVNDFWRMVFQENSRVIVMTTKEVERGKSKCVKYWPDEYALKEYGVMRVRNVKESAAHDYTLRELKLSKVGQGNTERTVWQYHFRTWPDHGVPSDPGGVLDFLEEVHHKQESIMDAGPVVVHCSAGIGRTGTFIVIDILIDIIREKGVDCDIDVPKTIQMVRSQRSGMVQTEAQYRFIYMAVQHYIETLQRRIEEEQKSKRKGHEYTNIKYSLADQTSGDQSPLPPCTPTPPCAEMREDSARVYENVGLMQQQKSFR

[11] = molecular target: T5, Tyrosine-protein phosphatase non-receptor type 5 (Homo sapiens, UniProt P54829); assay: PTPN5 enzyme inhibition – biochemical, fluorescence intensity, uHTS hits, confirmation (AID 602372); assay type: functional; settings: read-out: IC50_Mean
T5 sequence (P54829 whole entry): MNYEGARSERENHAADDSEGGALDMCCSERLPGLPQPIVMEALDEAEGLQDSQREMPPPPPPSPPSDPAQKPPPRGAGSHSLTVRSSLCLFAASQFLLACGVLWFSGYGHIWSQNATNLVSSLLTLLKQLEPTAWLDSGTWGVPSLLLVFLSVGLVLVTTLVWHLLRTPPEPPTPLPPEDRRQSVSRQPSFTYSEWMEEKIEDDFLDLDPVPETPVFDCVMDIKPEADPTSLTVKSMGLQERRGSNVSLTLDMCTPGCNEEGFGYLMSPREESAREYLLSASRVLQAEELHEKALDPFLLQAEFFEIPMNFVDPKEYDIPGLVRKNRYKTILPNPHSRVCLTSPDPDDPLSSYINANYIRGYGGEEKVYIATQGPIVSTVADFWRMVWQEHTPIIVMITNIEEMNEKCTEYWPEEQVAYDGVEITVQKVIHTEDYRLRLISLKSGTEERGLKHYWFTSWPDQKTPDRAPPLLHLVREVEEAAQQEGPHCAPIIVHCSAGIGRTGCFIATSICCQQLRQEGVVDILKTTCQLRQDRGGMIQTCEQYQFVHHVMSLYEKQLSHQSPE

[12] = molecular target: Dual specificity protein phosphatase 3 (Homo sapiens, UniProt P51452); assay: VHR phosphatase inhibition, dose response, selectivity assay for STEP inhibitor project, biochemical (AID 602374); assay type: functional; settings: read-out: IC50_Mean
Chain of Dual specificity protein phosphatase 3 (P51452 whole entry): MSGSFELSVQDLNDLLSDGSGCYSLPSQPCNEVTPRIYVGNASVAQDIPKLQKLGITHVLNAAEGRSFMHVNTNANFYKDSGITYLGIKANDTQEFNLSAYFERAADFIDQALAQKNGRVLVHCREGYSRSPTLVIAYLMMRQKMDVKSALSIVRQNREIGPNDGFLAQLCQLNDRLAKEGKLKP

[13] = molecular target: Eukaryotic translation initiation factor 4E (Mus musculus, UniProt P63073); assay: blockers of eIF4G binding by eIF4E – biochemical, TR-FRET, dose response (AID 855); assay type: functional;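 further: potency for disrupting eIF4E binding to eIF4GI seen as loss of FRET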
Chain of Eukaryotic translation initiation factor 4E (P63073 whole entry): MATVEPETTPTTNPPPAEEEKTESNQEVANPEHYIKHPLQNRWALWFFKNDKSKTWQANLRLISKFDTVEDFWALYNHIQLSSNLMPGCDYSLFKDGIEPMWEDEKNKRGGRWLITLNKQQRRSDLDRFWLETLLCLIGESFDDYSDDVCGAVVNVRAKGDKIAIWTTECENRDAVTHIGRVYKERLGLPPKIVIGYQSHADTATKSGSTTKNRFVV

[14] = NIH-3T3 fibroblast cytotoxicity, dose response, cytotoxicity control, cell-based, fluorescence, Alamar Blue, secondary assay (AID 2327); assay type: functional;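 further: NIH-3T3 mouse fibroblasts cultured with fluconazole at 8 µg/mL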
[15] = fluconazole-exposed Candida albicans growth modulators – fluorescence, retest, confirmation (AID 2467); assay type: functional, cell-based
[16] = intracellular Trypanosoma cruzi inhibitors in host cells – cell-based, plate reader, cherry-pick samples, set 3, dose response (AID 651818); assay type: functional;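 further: compounds incubated with infected cells for about four days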
[17] = molecular target: T6, Histone-lysine N-methyltransferase NSD2 (Homo sapiens, UniProt O96028); assay type: biochemical
T6 sequence (O96028 whole entry): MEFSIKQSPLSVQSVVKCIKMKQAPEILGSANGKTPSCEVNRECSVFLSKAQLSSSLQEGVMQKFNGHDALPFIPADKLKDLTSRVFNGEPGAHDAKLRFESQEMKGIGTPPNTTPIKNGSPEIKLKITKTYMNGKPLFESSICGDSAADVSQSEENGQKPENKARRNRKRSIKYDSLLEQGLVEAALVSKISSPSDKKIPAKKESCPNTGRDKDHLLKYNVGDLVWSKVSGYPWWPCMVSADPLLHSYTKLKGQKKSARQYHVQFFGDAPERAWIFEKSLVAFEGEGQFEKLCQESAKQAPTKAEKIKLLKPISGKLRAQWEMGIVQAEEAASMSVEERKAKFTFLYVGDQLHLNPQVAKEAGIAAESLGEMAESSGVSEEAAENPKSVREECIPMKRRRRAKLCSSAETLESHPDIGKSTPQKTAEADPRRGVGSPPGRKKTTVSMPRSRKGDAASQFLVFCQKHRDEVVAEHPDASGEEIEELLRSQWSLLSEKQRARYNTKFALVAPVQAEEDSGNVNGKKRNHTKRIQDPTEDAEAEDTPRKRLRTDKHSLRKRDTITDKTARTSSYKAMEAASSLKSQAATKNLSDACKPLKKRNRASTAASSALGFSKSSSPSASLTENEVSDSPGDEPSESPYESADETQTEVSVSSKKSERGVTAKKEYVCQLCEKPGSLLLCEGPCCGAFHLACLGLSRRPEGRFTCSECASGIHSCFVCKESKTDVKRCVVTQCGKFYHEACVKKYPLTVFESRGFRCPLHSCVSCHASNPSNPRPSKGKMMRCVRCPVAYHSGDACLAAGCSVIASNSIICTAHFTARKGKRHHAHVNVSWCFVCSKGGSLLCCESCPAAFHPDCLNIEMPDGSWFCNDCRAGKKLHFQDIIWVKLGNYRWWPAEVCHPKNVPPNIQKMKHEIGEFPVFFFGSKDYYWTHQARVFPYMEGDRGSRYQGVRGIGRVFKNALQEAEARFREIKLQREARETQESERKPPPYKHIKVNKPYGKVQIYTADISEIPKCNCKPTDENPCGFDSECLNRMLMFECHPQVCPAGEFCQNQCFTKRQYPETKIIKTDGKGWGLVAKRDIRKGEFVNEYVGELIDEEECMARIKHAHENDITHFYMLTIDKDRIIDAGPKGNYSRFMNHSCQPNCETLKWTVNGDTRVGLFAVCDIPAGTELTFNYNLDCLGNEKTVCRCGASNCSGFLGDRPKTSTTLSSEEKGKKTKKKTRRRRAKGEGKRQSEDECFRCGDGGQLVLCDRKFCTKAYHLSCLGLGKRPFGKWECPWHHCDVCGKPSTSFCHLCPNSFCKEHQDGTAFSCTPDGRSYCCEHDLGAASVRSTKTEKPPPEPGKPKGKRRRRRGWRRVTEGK

Chain of Photoreceptor-specific nuclear receptor (Q9Y5X4 whole entry, the tested form may be a part): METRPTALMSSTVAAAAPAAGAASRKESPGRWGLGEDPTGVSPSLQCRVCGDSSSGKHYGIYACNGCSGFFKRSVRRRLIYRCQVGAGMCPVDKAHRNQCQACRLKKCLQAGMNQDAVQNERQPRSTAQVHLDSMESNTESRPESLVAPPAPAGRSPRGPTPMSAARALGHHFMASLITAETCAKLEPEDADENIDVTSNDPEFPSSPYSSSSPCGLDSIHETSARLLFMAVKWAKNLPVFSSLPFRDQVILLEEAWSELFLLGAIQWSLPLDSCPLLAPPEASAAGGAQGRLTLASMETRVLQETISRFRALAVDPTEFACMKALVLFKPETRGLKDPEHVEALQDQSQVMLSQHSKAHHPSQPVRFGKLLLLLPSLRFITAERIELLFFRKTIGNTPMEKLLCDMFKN

O=C(COC(=O)c1cc([N+](=O)[O-])ccc1N1CCOCC1)Nc1ccc(Cl)cn1
IC50 [1]: 1.91 µM (active) | AC50 [2]: 25.6 µM (active) | IC50 (Fatty acid synthase [3]): 5.2 µM (active) | IC50 (Fatty acid synthase [4]): 6.06 µM (active) | AC50 [5]: 4.89 µM (active)

O=C(O)c1ccc(-n2ncc3c2/C(=C/c2cccc([N+](=O)[O-])c2)CC3)cc1
IC50 [6]: 9.76 µM (active) | EC50 [7]: > 53 µM (inactive) | IC50 [8]: 4.34 µM (active)

CCCN(CCC)CCCNC(=O)c1cc2c(O)nc3ccccc3c2s1
AC50 [9]: 71.6 µM (active)

COc1ccc(NC(=S)NCCCN2CCCC2)cc1Cl
IC50 [10]: 1.89 µM (active) | IC50 [11]: 16.4 µM (active) | IC50 [12]: 1.12 µM (active)

COCC(C)n1c(SCc2ccc(C(=O)OC)o2)nc2ccccc2c1=O (stereo unspecified)
IC50 [13]: > 64 µM (inactive) | IC50 [6]: > 20 µM (inactive) | EC50 [7]: > 53 µM (inactive) | IC50 [8]: 27.4 µM (active)

O=C1/C(=C\c2ccc(Br)cc2)SC(=S)N1NS(=O)(=O)c1ccccc1
EC50 [14]: 94.2 µM (active) | IC50 [6]: 17.6 µM (active) | EC50 [15]: 0.267 µM (active) | EC50 [7]: 36.2 µM (active) | IC50 [8]: 5.5 µM (active)

C[C@@H]1CN([C@H](C)CO)C(=O)c2cc(N(C)C)ccc2O[C@@H]1CN(C)Cc1ccc(C(=O)Nc2ccccc2N)cc1
AC50 [16]: 3.19 µM (active)

C[C@@H]1CN([C@H](C)CO)C(=O)c2cccc(NS(=O)(=O)c3ccc(F)cc3)c2O[C@@H]1CN(C)C(=O)Nc1ccc(C(F)(F)F)cc1
AC50 [16]: 4.16 µM (active)

C[C@@H]1CN([C@@H](C)CO)C(=O)Cc2cc(NC(=O)Nc3ccc(C(F)(F)F)cc3)ccc2O[C@@H]1CN(C)Cc1ccc(C(=O)Nc2ccccc2N)cc1
AC50 [16]: 1.8 µM (active)

CC(C)NC1CCC(Nc2ccnc3cc(Cl)ccc23)CC1 (stereo unspecified)
AC50 [17]: > 20 µM (inactive) | AC50 [9]: 25.7 µM (active)
